Assay [1] has as its system UW228-3 cells. The experiment in a line: Intracellular ROS levels (H2DCF-DA flow cytometry). Format: cell-based, human. To be noted: UW228-3, 1 mM H2O2 1 h. The procedure: (§1) Intracellular ROS levels were measured as described previously. Briefly, cells were treated with various concentrations of IQ10 for 4 h either alone or with subsequent exposure to 1 mM H2O2 (ROS positive control) for 1 h. Cells treated with DMSO, at the same dilution ratio as IQ10, were set as negative controls. Cells were then incubated with the cell-permeable dye 2′,7 ′-dichlorodihydrofluorescein diacetate (H2DCF-DA, Sigma) in fresh medium at a final concentration of 1 μM at 37 °C for 30 min. Cells were harvested and intracellular ROS levels assessed by measurement of fluorescence using a MACSquant flow cytometer (Miltenyi Biotec). A gate was set to include only healthy living cells in the analysis. Data were analysed using FlowJo 7.6.1 software (Tree Star) to obtain the median fluorescence intensity (MFI) of each group representing the amount of intracellular ROS generation.
(In flow cytometry, cells or beads pass a laser one at a time.)

Assay [2] relates to DAOY cells. The experiment in a line: Intracellular ROS levels (H2DCF-DA flow cytometry). Format: cell-based, human. To be noted: 1 mM H2O2 1 h. How it is done:
as §1

Assay [3] deals with SF188 cells. The experiment in a line: Clonogenic survival assay. Format: cell-based. Conditions: Homo sapiens, SF-188; SF188, 48 h post-treatment. The procedure: (§2) Cells collected from the growth assay (48 h time point) were counted and plated at low-density, in triplicate, and incubated at 37 °C, 5% CO2, undisturbed, for colony formation. After 12 days (21 days for KNS42), colonies were fixed (50% methanol in PBS), stained (0.5% crystal violet solution) and counted manually. Any cluster of cells greater than 50 in number was counted as a surviving colony. The plating efficiency (PE) was calculated as number of control colonies formed/number of control cells seeded. For single-agent treatment, drug or radiation, the surviving fraction (SF) was calculated as follows: number of colonies formed after treatment / (number of cells seeded × PE). For drug radiation combination experiments, cytotoxicity of drug treatment was accounted for by calculating SF as follows: number of colonies formed from each radiation dose / (number of cells seeded × PE × SF of drug-treated cell at 0 Gy).
Cells were seeded, in triplicate, in 24-well plates, incubated overnight and transfected with either a pre-designed siRNA directed against human TrxR-1 (SI00050876, target sequence, 5′-[…]-3′, Qiagen) or mock-transfected with a scrambled siRNA (Allstars Negative Control siRNA, Qiagen). […]

Assay [4] has as its system SNB19 cells. The experiment in a line: Clonogenic survival assay. Format: cell-based. To be noted: Homo sapiens, SNB-19; SNB19, 48 h post-treatment. The procedure: as §2
Assay [5] relates to KNS42 cells. The experiment in a line: Clonogenic survival assay. Type of assay: cell-based. To be noted: Homo sapiens, KNS-42; KNS42, 48 h post-treatment. How it is done: as §2
For assay [6], the system named is DAOY cells. The experiment in a line: Clonogenic survival assay. Type of assay: cell-based. Conditions: Homo sapiens, 48 h post-treatment. The procedure:
as §2, with “For drug radiation combination experiments, cytotoxicity of drug treatment was accounted for by calculating SF as follows: number of colonies formed from each radiation dose / (number of cells seeded × PE × SF of drug-treated cell at 0 Gy).” left out
(§3) Cells were seeded in ultra-low attachment round-bottom 96-well plates (Corning), aggregated by centrifugation (2000 rpm/10 min), and allowed to grow for 4 days under standard culture conditions to form mature spheroids. […] Viability was assessed using the resazurin reduction assay (CellTiter-Blue, Promega) following the manufacturer’s protocol. […] Fluorescence was measured with an excitation wavelength of 560 nm and emission 590 nm on a plate reader. […] Six spheroids per condition were assessed in each experiment. The clonogenicity of cells cultured in spheroids was assessed using conventional 2D clonogenic survival assay as described above. […]

Assay [7] deals with SF188 cells. The experiment in a line: Growth assay (cell counts). Type of assay: cell-based. To be noted: Homo sapiens, SF-188, 2D normoxia. How it is done:
(§4) Cells (2 × 10^5) were seeded in six-well plates, allowed to adhere overnight and then treated, in triplicate, with different concentrations of TMZ (0–1000 μM) or IQ10 (0–1 µM) for up to 72 h under normoxic or hypoxic conditions. DMSO was added to the negative control groups at the same volume equivalent to that in the treatment groups. For hypoxic experiments, cells were pre-incubated at 1% O2 for 24 h prior to drug treatment. Cells were then treated with different concentrations of IQ10 for up to an additional 72 h under hypoxia. Normoxic controls were always assessed in parallel to hypoxic-treated groups. Every 24 h after initiating drug treatment, cells were trypsinised and counted using a Countess system. Cell counts were recorded, analysed and plotted over the 72 h period.
(§5) Cells were seeded, in triplicate, in 24-well plates, incubated overnight and transfected with either a pre-designed siRNA directed against human TrxR-1 (SI00050876, target sequence, 5′-[…]-3′, Qiagen) or mock-transfected with a scrambled siRNA (Allstars Negative Control siRNA, Qiagen). Briefly, 2.5 μL of 2 μM siRNA and 4.5 μL HiPerFect transfection reagent (Qiagen) were combined in 100 μL medium (serum and antibiotic free) and incubated at room temperature for 10 min to allow complex formation. Reaction mixtures were then added to 400 μL of fresh medium. Medium was aspirated from wells and replaced with the appropriate 500 μL of transfection solution. After 48 h of incubation, the cells were re-plated, allowed to adhere overnight and treated with various concentrations of IQ10 for an additional 48 h. Growth curve and/or clonogenic survival assays were used as the endpoint to assess the drug effects. Western blotting analysis of TrxR and β-actin (as a loading control) were used to confirm that TrxR expression was suppressed for the duration of the experiment.

In assay [8] the test system is DAOY cells. The experiment in a line: Growth assay (cell counts). Type of assay: cell-based. Conditions: Homo sapiens, 2D normoxia. The procedure:
as §4, §5

For assay [9], the system named is UW228-3 cells. The experiment in a line: Clonogenic survival assay. Format: cell-based. To be noted: Homo sapiens; UW228-3, 48 h post-treatment. How it is done:
as §2, with “For drug radiation combination experiments, cytotoxicity of drug treatment was accounted for by calculating SF as follows: number of colonies formed from each radiation dose / (number of cells seeded × PE × SF of drug-treated cell at 0 Gy).” left out
as §3

The test system of assay [10] is SNB19 cells. The experiment in a line: Growth assay (cell counts). Format: cell-based. Conditions: Homo sapiens, SNB-19, 2D normoxia. How it is done:
as §4

In assay [11] the test system is UW228-3 cells. The experiment in a line: Growth assay (cell counts). To be noted: Homo sapiens, 2D normoxia. Type of assay: cell-based. The procedure: as §4
The test system of assay [12] is KNS42 cells. The experiment in a line: Growth assay (cell counts). Type of assay: cell-based. Conditions: Homo sapiens, KNS-42, 2D normoxia. The procedure:
as §4

Assay [13] has as its system TrxR. More on the design: method as in PMID 17320769. To be noted: ovarian cancer cells; cited from earlier work.
Assay [14] concerns the target T1, TrxR (Homo sapiens, UniProt Q16881).
T1 construct: cells were trypsinised, counted and lysed in M-PER protein extraction reagent; endogenous in cells; host or cells: SF188, DAOY, UW228-3
T1 sequence (Q16881 151-649 limits assumed): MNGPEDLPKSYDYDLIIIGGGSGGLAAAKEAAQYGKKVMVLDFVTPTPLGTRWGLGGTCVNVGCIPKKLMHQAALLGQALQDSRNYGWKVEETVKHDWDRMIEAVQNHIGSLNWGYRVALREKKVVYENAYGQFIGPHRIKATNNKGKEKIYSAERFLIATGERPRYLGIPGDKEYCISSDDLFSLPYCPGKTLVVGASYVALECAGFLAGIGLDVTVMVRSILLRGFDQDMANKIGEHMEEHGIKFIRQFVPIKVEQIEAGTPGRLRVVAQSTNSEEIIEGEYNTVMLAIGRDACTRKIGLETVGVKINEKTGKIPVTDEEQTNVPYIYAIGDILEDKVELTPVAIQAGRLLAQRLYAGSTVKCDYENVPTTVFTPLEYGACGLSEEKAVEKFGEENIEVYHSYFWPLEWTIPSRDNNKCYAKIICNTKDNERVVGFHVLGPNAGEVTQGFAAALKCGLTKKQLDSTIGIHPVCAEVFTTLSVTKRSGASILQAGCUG
The experiment in a line: TrxR activity assay (endpoint insulin reduction) on lysates of drug-treated cells. Type of assay: cell-based. To be noted: 1 μM, 4 h; SF188, DAOY and UW228-3 cells. The procedure:
Following incubation, with various concentrations of IQ10 or with 1 μM of auranofin, for 4/48 h, cells were trypsinised, counted and lysed in M-PER protein extraction reagent (Thermo Fisher) for 20 min. Lysates were analysed immediately or stored for future use at − 80 °C. The Bio-Rad protein assay kit (Bio-Rad Laboratories) was used to measure the protein concentration of each sample. TrxR activity was measured in 96-well plates using the endpoint insulin reduction assay as described previously with appropriate modifications. Briefly, the assay mixture contained the following in a final volume of 100 μL HE buffer (100 mM HEPES, pH 7.2; 5 mM EDTA): 80 µg of protein, 2 µM Escherichia coli Trx, 1 mg/ml bovine insulin and 1 mM NADPH. Duplicate samples were used, either with or without exogenous Trx enzyme. […] Absorbance was measured at 405 nm using a microplate reader (FLUOstar OPTIMA, BMG LABTECH). The absorbance of the sample lacking exogenous Trx was subtracted from that of the corresponding sample containing exogenous Trx. The difference in absorbance indicates TrxR function. The amount of functional TrxR was calculated from the standard curve, generated simultaneously, with pure enzymes. The TrxR activity was expressed as the percentage of DMSO-treated control.

Each structure is given as a SMILES string.

For orientation: IC50 means the concentration at which inhibition is half-maximal.

Turning to `OO` [H2O2], the “intracellular ROS levels compared to control” value in [1] is given as 1.5 fold; in [2], 1.4 fold.
In the case of `Cn1nnc2c(C(N)=O)ncn2c1=O` [TMZ, temozolomide], the IC50 in assay [3] was 15.2 ± 0.9 µM; in [4], 63.7 ± 10 µM; in assay [5], 49.5 ± 11.4 µM; in [6], 464 ± 20.1 µM; in [7] (SF188, 24 h), > 1000 µM; in assay [7] (SF188, 48 h), 321 ± 86.8 µM. The IC50 is 188 ± 24.1 µM in [7] (SF188, 72 h); 547 ± 11.6 µM in [8] (24 h); 248 ± 49.8 µM in [8] (48 h); 162 ± 14.3 µM in assay [8] (72 h); 93.1 ± 30 µM in assay [9]; > 1000 µM in [10] (SNB19, 24 h). In addition, the IC50 in assay [10] (SNB19, 48 h) was > 1000 µM; in assay [10] (SNB19, 72 h), 980 ± 281 µM; in assay [11] (UW228-3, 24 h), > 1000 µM; in assay [11] (UW228-3, 48 h) it was 314 ± 17.8 µM; in assay [11] (UW228-3, 72 h) it was 148 ± 14.7 µM; in assay [12] (KNS42, 24 h), > 1000 µM. The half-maximal inhibitory concentration (IC50) is > 1000 µM in [12] (KNS42, 48 h) and 731 ± 24.3 µM in [12] (KNS42, 72 h).
`CC(=O)OC[C@H]1O[C@@H]([S-])[C@H](OC(C)=O)[C@@H](OC(C)=O)[C@@H]1OC(C)=O.CCP(CC)CC.[Au+]` [auranofin]: in assay [13], the “concentrations inhibiting TrxR” value was “nanomolar concentrations”. Also, the “average TrxR inhibition” value in [14] is given as 83–95%.
